For one series, the system named is Streptococcus II. Kind of series: MIC, clinically separated strains. The format is cell-based. As to conditions: 18 h; for MIC50 / MIC90: 17 clinical strains; for MIC: read-out: range of MIC, 17 clinical strains. The procedure:
(§1) The MIC values were taken by employing a two-fold dilution method: that is, two-fold serial dilutions of each of the test compounds were made from initial concentration of […]; each 1.5 ml of them was dispersed in 13.5 ml of Muller Hinton agar medium to adjust to […]; the standard test strain which had the concentration of 10^7 CFU/ml was inoculated by medium;and these were incubated at 37° C. for 18 hours.

In the next series the test system is ATCC. Kind of series: MIC, clinically separated strains. The format is cell-based. The following applies: 18 h; 20 strains. On the procedure:
as §1

The test system of a further series is Pseudomonas I. Description: MIC, clinically separated strains. In kind it is cell-based. The following applies: 18 h; for MIC: read-out: range of MIC. The procedure:
as §1

For series [1], the system named is Streptococcus pyogens A77. Description: antibiotic activity against systemic infection in mice. The format is in vivo. The following applies: A77, im, bacteria intraperitoneally, intramuscular injection, 5 to 0.078 mg/kg, probit method (confidence limit), read-out: PD50. On the procedure: In order to illustrate clinical effectiveness of the compounds of the present invention more specifically, the stability to β-lactamase and antibiotic activity against systemic infection, were tested, and the results are shown in Table 4 and 5, respectively.
Antibiotic activity against systematic infection was tested by using mice: that is, 0.3 ml of a strain solution containing fatal dose of bacteria in 0.3 ml was administered to mice intraperitoneally; and then, the test antibiotics were administered intramuscularly in an amount of 5 to 0.078 mg/kg. PD50 was calculated by probit method.

A further series is described as follows: acute toxicity test. As to conditions: in vivo, iv.
The subject of series [2] is Staphylococcus aureus 285. Description: MIC, standard strain 5. The format is cell-based. The following applies: Staphylococcus aureus; S. aureus 285; two-fold dilution, Muller Hinton agar, 10^7 CFU/ml, 37° C., 18 hours; read-out: Minimal Inhibitory Concentration(MIC). On the procedure: (§2) In order to illustrate antibiotic effectiveness of the compounds of the present invention, the minimal inhibitory concentrations (MIC's) of the representative compounds were determined against standard strains and compared with ceftazidime and cefpirome, which were used as control compounds.
as §1
(§3) The test used twenty kinds of standard test strains which induced urinary tract infections, respiratory organ infections, skin soft tissue infections, plasma infections, gastrointestinal infections, central nervous system infections, most of which produce β-lactamase. The standard test strains used are as follows:
5. Staphylococcus aureus 285

In series [3] the test system is Pseudomonas aeruginosa 1592 E. Description: MIC, standard strain 13. In kind it is cell-based. As to conditions: P. aeruginosa 1592 E, two-fold dilution, Muller Hinton agar, 10^7 CFU/ml, 37° C., 18 hours, read-out: Minimal Inhibitory Concentration(MIC). On the procedure:
as §2, §1, §3
13. Pseudomonas aeruginosa 1592 E

Series [4] has as its system Enterobacter cloacae P 99. Description: MIC, standard strain 19. In kind it is cell-based. As to conditions: P99, 18 h, read-out: Minimal Inhibitory Concentration(MIC). On the procedure:
as §2, §1, §3
19. Enterobacter cloacae P 99

The next series concerns Escherichia coli DC 2. Kind of series: MIC, standard strain 9. In kind it is cell-based. As to conditions: DC2, E. coli DC 2, two-fold dilution, Muller Hinton agar, 10^7 CFU/ml, 37° C., 18 hours, read-out: Minimal Inhibitory Concentration(MIC). On the procedure: as §2, §1
(§4) The test used twenty kinds of standard test strains which induced urinary tract infections, respiratory organ infections, skin soft tissue infections, plasma infections, gastrointestinal infections, central nervous system infections, most of which produce β-lactamase.

Another series relates to Escherichia coli 0 55. Kind of series: MIC, standard strain 7. The format is cell-based. The following applies: 055, E. coli 0 55, two-fold dilution, Muller Hinton agar, 10^7 CFU/ml, 37° C., 18 hours, read-out: Minimal Inhibitory Concentration(MIC). On the procedure: as §2, §1, §4
The next series has as its system Escherichia coli DC 0. Kind of series: MIC, standard strain 8. The format is cell-based. The following applies: DC0, E. coli DC 0, two-fold dilution, Muller Hinton agar, 10^7 CFU/ml, 37° C., 18 hours, read-out: Minimal Inhibitory Concentration(MIC). The procedure: as §2, §1, §4
Series [5] concerns Pseudomonas aeruginosa 1771M. Kind of series: MIC, standard strain 15. The format is cell-based. As to conditions: 18 h, read-out: Minimal Inhibitory Concentration(MIC). The procedure:
as §2, §1, §3
15. Pseudomonas aeruginosa 1771M

Another series concerns Streptococcus faecium 8b. Description: MIC, standard strain 3. The format is cell-based. As to conditions: Enterococcus faecium; S. faecium 8b; two-fold dilution, Muller Hinton agar, 10^7 CFU/ml, 37° C., 18 hours; read-out: Minimal Inhibitory Concentration(MIC). On the procedure: as §2, §1, §3
3. Streptococcus faecium 8b

The test system of series [6] is Streptococcus pyogenes A 308. Description: MIC, standard strain 1. In kind it is cell-based. As to conditions: A308, S. pyogenes A 308, two-fold dilution, Muller Hinton agar, 10^7 CFU/ml, 37° C., 18 hours, read-out: Minimal Inhibitory Concentration(MIC). The procedure: as §2, §1, §3
1. Streptococcus pyogenes A 308

For series [7], the system named is Staphylococcus aureus SG 511. Kind of series: MIC, standard strain 4. The format is cell-based. The following applies: read-out: Minimal Inhibitory Concentration(MIC). On the procedure: as §2, §1, §3
4. Staphylococcus aureus SG 511

Series [8] relates to Pseudomonas aeruginosa 9.027. Kind of series: MIC, standard strain 12. The following applies: Pseudomonas aeruginosa; P. aeruginosa 9.027; two-fold dilution, Muller Hinton agar, 10^7 CFU/ml, 37° C., 18 hours; read-out: Minimal Inhibitory Concentration(MIC). In kind it is cell-based. On the procedure:
as §2, §1, §3
12. Pseudomonas aeruginosa 9.027

Series [9] deals with Enterobacter cloacae 1321 E. Kind of series: MIC, standard strain 20. In kind it is cell-based. As to conditions: E. cloacae 1321 E, two-fold dilution, Muller Hinton agar, 10^7 CFU/ml, 37° C., 18 hours, read-out: Minimal Inhibitory Concentration(MIC). The procedure:
as §2, §1, §3
20. Enterobacter cloacae 1321 E

For series [10], the system named is Gram-negative and Gram-positive bacteria. As to conditions: cited from earlier work.
Another series relates to Pseudomonas. The following applies: compared with DQ-2556 or ceftazidime; cited from earlier work.

SMILES strings stand for the structures. Converted amounts (≈) assume the structure as drawn. Read-outs that look alike come from different tables or passages of the source. Where only a bound is given, the exact number is not on record here.

Take `CO/N=C(\C(=O)N[C@@H]1C(=O)N2C(C(=O)[O-])=C(C[n+]3ccc(C(N)=O)c4c3CCC4)CS[C@H]12)c1csc(N)n1` [Example 3]: the MIC50 in the series with Streptococcus II worked out at 0.004 µg/mL (≈ 0.00717 µM); against ATCC, 0.098 µg/mL (≈ 0.176 µM); with Pseudomonas I it was 3.12 µg/mL (≈ 5.6 µM). In addition, the values for the MIC90 in the series on Streptococcus II, in the series with ATCC and with Pseudomonas I were 0.007 µg/mL (≈ 0.0126 µM), 25 µg/mL (≈ 44.8 µM) and 6.25 µg/mL (≈ 11.2 µM), respectively. Further, the MIC is 0.002 to 0.007 µg/mL (≈ 0.00359 to 0.0126 µM) in the series with Streptococcus II; 0.781 to 12.5 µg/mL (≈ 1.4 to 22.4 µM) in the series with Pseudomonas I; 781 µg/mL (≈ 1400 µM) in [2]; 1560 µg/mL (≈ 2800 µM) in [3]; 3120 µg/mL (≈ 5600 µM) in series [4]; 25 µg/mL (≈ 44.8 µM) in the series with Escherichia coli DC 2. Also, the MIC amounted to 31 µg/mL (≈ 55.6 µM) in the series with Escherichia coli 0 55; 25 µg/mL (≈ 44.8 µM) in the series on Escherichia coli DC 0; 195 µg/mL (≈ 350 µM) in series [5]; 12500 µg/mL (≈ 22400 µM) in the series with Streptococcus faecium 8b; 0.7 µg/mL (≈ 1.26 µM) in series [6]; 391 µg/mL (≈ 701 µM) in series [7] (SG511, 18 h). In addition, the MIC in series [8] came out at 1560 µg/mL (≈ 2800 µM); in [9], 7 µg/mL (≈ 12.6 µM). Also, the ED50 in series [1] came out at 0.29 mg/kg. Also, in the series “acute toxicity test”, the LD50 was greater than 3000 mg/kg.

`CO/N=C(\C(=O)N[C@@H]1C(=O)N2C(C(=O)[O-])=C(C[n+]3cccc4c3CCC4)CS[C@H]12)c1csc(N)n1` [cefpirome, reference compound]: the MIC50 in the series on Streptococcus II worked out at 0.004 µg/mL (≈ 0.00777 µM); against ATCC, 0.098 µg/mL (≈ 0.19 µM); in the series with Pseudomonas I it was 1.56 µg/mL (≈ 3.04 µM). Further, the MIC90 was determined as 0.007 µg/mL (≈ 0.0136 µM) in the series with Streptococcus II, 25 µg/mL (≈ 48.6 µM) with ATCC and 6.25 µg/mL (≈ 12.1 µM) in the series with Pseudomonas I. The MIC in the series with Streptococcus II is 0.002 to 0.007 µg/mL (≈ 0.00389 to 0.0136 µM); with Pseudomonas I, 0.781 to 12.5 µg/mL (≈ 1.52 to 24.3 µM); in [2], 781 µg/mL (≈ 1520 µM); in [3], 1560 µg/mL (≈ 3040 µM); in series [4], 3120 µg/mL (≈ 6070 µM); in the series on Escherichia coli DC 2 it was 49 µg/mL (≈ 95.2 µM). Also, the MIC in the series on Escherichia coli 0 55 amounted to 13 µg/mL (≈ 25.3 µM); with Escherichia coli DC 0 it was 49 µg/mL (≈ 95.2 µM); in [5], 195 µg/mL (≈ 379 µM); with Streptococcus faecium 8b it was 25000 µg/mL (≈ 48600 µM); in series [6] it was 4 µg/mL (≈ 7.77 µM); in series [7] (SG511, S. aureus SG 511, two-fold dilution, Muller Hinton agar, 10^7 CFU/ml, 37° C., 18 hours), 391 µg/mL (≈ 760 µM). Moreover, the MIC in series [8] was determined as 3120 µg/mL (≈ 6070 µM); in series [9] it was 13 µg/mL (≈ 25.3 µM). Moreover, in series [10], the “activity against Gram-negative and Gram-positive bacteria, in words” value was “improved activity against Gram-negative and Gram-positive bacteria”. Further, in the series with Pseudomonas, the “activity against Pseudomonas, in words” value is recorded as “inferior to ceftazidime”.

Source of the values: patent US5593985A, “Cephalosporin compounds” (priority 1994, dated 1997).
